Patent US20110033850A1, “COMPOSITIONS AND METHODS FOR THE IDENTIFICATION OF INHIBITORS OF RETROVIRAL INFECTION” (priority 2007, published 2011)

Test system: HIV
Assay: anti-HIV activity in freshly harvested PBMC cells (secondary HIV assay)
Type: cell-based
Experimental: These compounds were analyzed for anti-HIV activity in freshly harvested PBMC cells. Of the 30 tested compounds, 15 were active at a concentration of less than 100 ˜M (the highest tested concentration). Of these 15 compounds, 9 were […] to the PBMC cells at the 100 ˜M concentration; thus, an absolute conclusion regarding the differential toxicity to HIV and PBMC cells cannot be drawn with these 9 compounds. […]

Row | SMILES | anti-HIV activity [µM]
1 | O=C1c2ccccc2C(=O)c2c1nc1ccccn21 [naphtho[2′,3′,4,5]imidazo[1,2-a]pyridine-6,11-dione] | 0.63
2 | CN(C)c1cccc2c(C=O)ccc(N(C)C)c12 | 0.022
